# Entries after “also recorded” stand apart in the source; their conditions may differ. Where a name gives a salt, the structure may show the parent alone.
# How the values were obtained:
# [1] = test system: hypothalamic-pituitary GH axis; assay: MK-0677 challenge test: peak serum GH after a single oral dose of MK-0677; type: in vivo, human; details: for Peak GH response to MK-0677: baseline; for Peak GH to MK-0677: single dose 0.8 mg/kg
# Description: Testing for GH secretion with MK-0677: A single, oral dose of MK-0677 is administered to a patient and sufficient blood samples are taken prior to and after administration (e.g., 15 minutes before and t=0, 30, 60, 90, and 120 minutes after administration) to measure the peak GH secretion. An example of the amount of MK-0677 administered is 0.8 mg/kg. In an aspect, the patient being tested will have fasted overnight (abstinence from all food and drink but water). [table] Subjects will report to the clinic in the morning after an overnight fast from all food and drink except water. A catheter will be inserted approximately 1 hour before the administration of MK 0677. Two baseline measures will be taken a t=−15 minutes and t=0 minutes (time at which subject is administered the dose). Subjects will be given a dose of 0.8 mg/kg MK-0677 as 2-mg tablets to be taken orally. Blood samples will be taken subsequently at t=30, 60, 90, 120 minutes. In addition at t=−15 and 120 minutes, samples will be drawn for a serum chemistry panel. At the conclusion of the test, the catheter will be removed. All blood samples will be analyzed for GH, prolactin, and cortisol by a core clinical laboratory.
# [2] = test system: GHD children; details: cited from earlier work
# [3] = test system: GHD children; assay: Phase IIb therapeutic study in pediatric GH deficiency: height velocity after 6 months of treatment; type: in vivo, human; details: for Delta Height Velocity, Biological Age (BA) / Delta Height Velocity, Chronological Age (CA): general population of GHD children; for height velocity in the LOW group compared with the EQUAL group, in words: 6 months of treatment; for growth (height velocity) response, GH compared with MK-0677, in words: 6 months
# Description: In the Phase IIb study, 24 children were treated with 0.8 mg/kg/d MK-0677. […] This can also be expressed as a height velocity standard deviation (SD) (or standard deviations-also SD) at baseline of 0.4±2.1 and 3.5±2.0 at 6 months. […] Change in height velocity SD for chronological age was 0.4±2.1 for placebo and 3.5±2.0 for treatment with MK-0677 after 6 months at a dose of 0.8 mg/kg/d. Twenty of the 22 placebo-treated children were then treated with standard Growth Hormone (GH) treatment (daily subcutaneous injection of rhGH, 0.043 mg/kg/day). […] Therapeutic Study in Pediatric GH Deficiency: A Phase IIb study was run to determine whether or not MK-0677 could be used to treat pediatric GHD. MK-0677 was compared against placebo and rhGH injections according to the following protocol. Bone age was determined using the atlas matching method of Greulich and Pyle. Protocol: 6 months of once-daily oral sucrose formulation solution. Tables 6A-6E show the height velocity for EQUAL growth potential children treated with either 0.8 mg/kg/daily po or 0.4 mg/kg/daily po MK-0677 compared with rhGH (0.3 mg/kg/week; ˜42 μg/kg/daily sc injection). […] Values are mean (SD). Tables 7A-7C compare the height velocity for low growth potential patients (LOW) with equivalent growth potential compared to rhGH (EQUAL). Values are mean (SD).
# [4] = Adequate GH Secretion Potential, MK-0677 0.8 mg/kg/d (N = 15)
# [5] = Low GH Secretion Potential, MK-0677 0.8 mg/kg/d (N = 9)
# [6] = Adequate GH Secretion Potential, GH 0.3 mg/kg/wk (N = 15)
# [7] = GH after placebo 0.3 mg/kg/week (n = 20)
# [8] = Low GH Secretion Potential, GH 0.3 mg/kg/wk (N = 5)
compound,measurement,setting,value
"CC(C)(N)C(=O)N[C@H](COCc1ccccc1)C(=O)N1CCC2(CC1)CN(S(C)(=O)=O)c1ccccc12 [MK-0677, Ibutamoren mesylate]",Peak GH response to MK-0677,"[1]; Adequate GH Secretion Potential, group later given Placebo followed by rhGH (N = 15)",39.2 (28.8) μg/L
same,Peak GH response to MK-0677,"[1]; Adequate GH Secretion Potential, group later treated with MK-0677 0.8 mg/kg/d (N = 15)",41.3 (27.8) μg/L
same,Peak GH response to MK-0677,"[1]; Low GH Secretion Potential, group later given Placebo followed by rhGH (N = 5)",2.9 (0.6) μg/L
same,Peak GH response to MK-0677,"[1]; Low GH Secretion Potential, group later treated with MK-0677 0.8 mg/kg/d (N = 9)",3.2 (1.3) μg/L
same,Peak GH response to MK-0677,"[1]; equivalent growth potential, Placebo group later switched to rhGH (N = 13)",51.2 (25.3) μg/L
same,Peak GH response to MK-0677,"[1]; equivalent growth potential, group later treated with MK-0677 0.8 mg/kg (N = 14)",43.7 (27.1) μg/L
same,Peak GH response to MK-0677,"[1]; low growth potential, Placebo group later switched to rhGH (N = 9)",6.7 (5.9) μg/L
same,Peak GH response to MK-0677,"[1]; low growth potential, group later treated with MK-0677 0.8 mg/kg (N = 10)",3.6 (1.7) μg/L
same,Peak GH to MK-0677,[1]; All subjects (73),32 ± 3.5 µg/L
same,Peak GH to MK-0677,"[1]; High Potential (≥5 μg/L), 49 subjects",43 ± 30 µg/L
same,Peak GH to MK-0677,"[1]; Low Potential (≤5 μg/L), 24 subjects",3.0 ± 1.0 µg/L
same,growth rate at 6 months,"[2]; MK-0677 0.8 mg/kg/d, 24 children, Merck Phase IIb study",6.8±2.0 cm/y
same,Change in height velocity SD for chronological age,"[2]; MK-0677 0.8 mg/kg/d, after 6 months",3.5±2.0
same,change in growth rate,"[2]; MK-0677 0.8 mg/kg/d, baseline to 6 months, 24 children",3.4±2.1 cm/y
same,"Delta Height Velocity, Biological Age (BA)",[3]; 0.4 mg/kg/d (n = 22),2.6 (1.5) standard deviations
same,"Delta Height Velocity, Chronological Age (CA)",[3]; 0.4 mg/kg/d (n = 22),2.6 (1.7) standard deviations
same,"Delta Height Velocity, Biological Age (BA)",[3]; 0.8 mg/kg/d (n = 22),3.3 (1.8) standard deviations
same,"Delta Height Velocity, Chronological Age (CA)",[3]; 0.8 mg/kg/d (n = 22),3.5 (2.0) standard deviations
same,"height velocity in the LOW group compared with the EQUAL group, in words",[3],lower than with the EQUAL group
same,Delta height velocity,[3]; [4],3.4 (1.4) cm/year
same,Height velocity SD for BA,[3]; [4],3.8 (1.3)
same,Height velocity SD for CA,[3]; [4],3.8 (1.7)
same,Height Velocity,"[3]; EQUAL (N = 12), 6-Month MK 0.4 mg/kg/day",6.2 (1.8)
same,Height Velocity,"[3]; EQUAL (N = 14), 6-Month MK 0.8 mg/kg/day",7.6 (1.3)
same,"growth (height velocity) response, GH compared with MK-0677, in words",[3]; EQUAL patient group (peak GH ≥5 μg/L to MK-0677 and baseline IGF-I >30 μg/L),equal to GH treatment; also recorded: does not differ significantly from that to GH; also recorded: equivalent growth response
same,Height Velocity,"[3]; LOW (N = 10), 6-Month MK 0.4 mg/kg/day",5.8 (2.1)
same,Height Velocity,"[3]; LOW (N = 10), 6-Month MK 0.8 mg/kg/day",5.8 (2.2)
same,Height Velocity,"[3]; LOW and EQUAL combined, 6-Month MK 0.4 mg/kg/day (N = 22), mean (SD)",6.0 (1.9)
same,Height Velocity,"[3]; LOW and EQUAL combined, 6-Month MK 0.8 mg/kg/day (N = 24), mean (SD)",6.9 (1.9)
same,"growth (height velocity) response, GH compared with MK-0677, in words",[3]; LOW growth potential / severely GH deficient patients,inadequate growth response; also recorded: less responsive
same,Delta height velocity,[3]; [5],2.3 (2.0) cm/year
same,Height velocity SD for BA,[3]; [5],2.6 (2.4)
same,Height velocity SD for CA,[3]; [5],2.9 (2.5)
same,Height Velocity,"[3]; equivalent growth potential, after 6 months of MK-677 0.8 mg/kg (N = 14)",7.6 (1.3) cm/year
same,Height Velocity,"[3]; low growth potential, after 6 months of MK-677 0.8 mg/kg (N = 10)",5.8 (2.2) cm/year
same,"growth response, GH compared with MK-0677, in words",[3]; patients with adequate GH secretion potential (Table 4B),comparable with GH and was not statistically different
"rhGH: recombinant human growth hormone given as daily subcutaneous injection, standard GH therapy",height velocity SD score for chronological age,"[2]; rhGH 0.043 mg/kg/day daily sc, 20 children after 6 months of placebo",7.6±5.6
same,"increase in height velocity SD, GH compared with MK-0677",[2]; rhGH 0.043 mg/kg/day vs MK-0677 0.8 mg/kg/d,twice as high
same,"height velocity in the LOW group compared with the EQUAL group, in words",[3],greater in the LOW group than in the EQUAL group
same,Delta height velocity,[3]; [6],4.9 (2.9) cm/year
same,Height velocity SD for BA,[3]; [6],4.9 (2.6)
same,Height velocity SD for CA,[3]; [6],5.1 (2.8)
same,Height Velocity,"[3]; EQUAL (N = 11), 6-Month rhGH",8.8 (1.8)
same,"Delta Height Velocity, Biological Age (BA)",[3]; [7],6.2 (3.4) standard deviations
same,"Delta Height Velocity, Chronological Age (CA)",[3]; [7],7.6 (5.6) standard deviations
same,Height Velocity,"[3]; LOW (N = 9), 6-Month rhGH",14.0 (4.1)
same,Height Velocity,"[3]; LOW and EQUAL combined, 6-Month GH 0.3 mg/kg/week (N = 20), mean (SD)",11.1 (4.0)
same,Height Velocity,"[3]; LOW and EQUAL combined, GH (12-Month): 6 months rhGH after 6 months placebo (N = 20), paired T-test table",11.14 (3.96)
same,"growth (height velocity) response, GH compared with MK-0677, in words","[3]; LOW growth potential / severely GH deficient patients, listed as GH",extremely sensitive to GH; also recorded: increase in height velocity
same,Delta height velocity,[3]; [8],12.3 (4.4) cm/year
same,Height velocity SD for BA,[3]; [8],10.0 (2.2)
same,Height velocity SD for CA,[3]; [8],15.1 (5.1)
same,Height Velocity,"[3]; equivalent growth potential, after 6 months of GH ~42 μg/kg/day (N = 11)",8.8 (1.8) cm/year
same,Height Velocity,"[3]; low growth potential, after 6 months of GH ~42 μg/kg/day (N = 9)",14.0 (4.1) cm/year
same,"growth (height velocity) response, GH compared with MK-0677, in words","[3]; overall patient group, GH 0.3 mg/kg/week sc vs MK-0677 0.8 mg/kg/day oral",superior to MK-0677
same,"growth response, GH compared with MK-0677, in words",[3]; patients with low GH secretion potential (Table 3B),superior
